Key:
Format in all cases: in vivo
[1] = test system: pigweed (Amaranthus retroflexus); assay: Test A preemergence, directed soil spray, visual injury rating; conditions: 0 is no effect, 100 is complete control
Procedure, shortened: (§1)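 Injury ratings, 0 (no effect) to 100 (complete control), were scored visually versus untreated plants roughly 10 d after treatment under greenhouse conditions. Treatments used surfactant-containing solvent formulations, sprayed onto soil preemergence or onto one- to two-leaf seedlings (2-10 cm) postemergence, grown in a loam-sand mix.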

[2] = test system: barnyardgrass (Echinochloa crus-galli); assay: as above; conditions: 0 is no effect, 100 is complete control
Procedure, shortened: as §1

[3] = test system: Foxtail, Green; assay: as above; conditions: 1000 g ai/ha, 0 is no effect, 100 is complete control
[4] = test system: ragweed (common ragweed, Ambrosia elatior); assay: as above; conditions: 0 is no effect, 100 is complete control
Procedure, shortened: as §1

[5] = test system: kochia (Kochia scoparia); assay: as above; conditions: 0 is no effect, 100 is complete control
Procedure, shortened: as §1

[6] = test system: ryegrass, It. (Italian ryegrass, Lolium multiflorum); assay: as above; conditions: 0 is no effect, 100 is complete control
Procedure, shortened: as §1

[7] = test system: pigweed (Amaranthus retroflexus); assay: Test A postemergence application, visual injury rating; conditions: 0 to 100 scale, 0 no effect, 100 complete control
Procedure, shortened: as §1

[8] = test system: barnyardgrass (Echinochloa crus-galli); assay: as above; conditions: 0 to 100 scale, 0 no effect, 100 complete control
Procedure, shortened: as §1

[9] = test system: Foxtail, Green; assay: as above; conditions: 1000 g ai/ha, 0 to 100 scale, 0 no effect, 100 complete control
[10] = test system: galium (catchweed bedstraw, Galium aparine); assay: as above; conditions: 0 to 100 scale, 0 no effect, 100 complete control
Procedure, shortened: as §1

[11] = test system: ragweed (common ragweed, Ambrosia elatior); assay: as above; conditions: 0 to 100 scale, 0 no effect, 100 complete control
Procedure, shortened: as §1

[12] = test system: kochia (Kochia scoparia); assay: as above; conditions: 0 to 100 scale, 0 no effect, 100 complete control
Procedure, shortened: as §1

[13] = test system: corn (Zea mays); assay: as above; conditions: 0 to 100 scale, 0 no effect, 100 complete control
Procedure, shortened: as §1

[14] = test system: wheat (Triticum aestivum); assay: as above; conditions: 0 to 100 scale, 0 no effect, 100 complete control
Procedure, shortened: as §1

[15] = test system: blackgrass (Alopecurus myosuroides); assay: as above; conditions: 0 to 100 scale, 0 no effect, 100 complete control
Procedure, shortened: as §1

[16] = test system: ryegrass, It. (Italian ryegrass, Lolium multiflorum); assay: as above; conditions: 0 to 100 scale, 0 no effect, 100 complete control
Procedure, shortened: as §1

[17] = test system: barnyardgrass (Echinochloa crus-galli); assay: Test B flooded paddy test, visual rating; conditions: Flood, 250 g ai/ha, applied to paddy water, rated after 13 to 15 d
Procedure, shortened: (§2)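 Ratings use a 0-100 visual scale, where 100 is complete control, and compare treated plants with controls after 13 to 15 d of greenhouse growth. Compound went straight into paddy water kept 3 cm over the soil surface, applied to seedlings at the 2-leaf stage.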

[18] = test system: rice (Oryza sativa); assay: Test B flooded paddy test, visual rating; conditions: Flood, 250 g ai/ha, applied to paddy water, rated after 13 to 15 d
Procedure, shortened: as §2

[19] = test system: ducksalad (Heteranthera limosa); assay: Test B flooded paddy test, visual rating; conditions: Flood, 250 g ai/ha, applied to paddy water, rated after 13 to 15 d
Procedure, shortened: as §2

[20] = test system: sedge, umbrella (small-flower umbrella sedge, Cyperus difformis); assay: Test B flooded paddy test, visual rating; conditions: Flood, 250 g ai/ha, applied to paddy water, rated after 13 to 15 d
Procedure, shortened: as §2

[21] = test system: foxtail, giant (giant foxtail, Setaria faberii); assay: Test A preemergence, directed soil spray, visual injury rating; conditions: 0 is no effect, 100 is complete control
Procedure, shortened: as §1

[22] = test system: foxtail, giant (giant foxtail, Setaria faberii); assay: Test A postemergence application, visual injury rating; conditions: 0 to 100 scale, 0 no effect, 100 complete control
Procedure, shortened: as §1

Structure (SMILES)	Barnyardgrass plant response rating (0 to 100 scale, 0 is no effect, 100 is complete control) [17]	Rice plant response rating (0 to 100 scale, 0 is no effect, 100 is complete control) [18]	Ducksalad plant response rating (0 to 100 scale, 0 is no effect, 100 is complete control) [19]	Sedge, Umbrella plant response rating (0 to 100 scale, 0 is no effect, 100 is complete control) [20]	Plant response rating (0 to 100 scale), Pigweed ([1]; 125 g ai/ha)	Plant response rating (0 to 100 scale), Barnyardgrass ([2]; 125 g ai/ha)	Plant response rating (0 to 100 scale), Foxtail, Giant ([21]; 125 g ai/ha)	Plant response rating (0 to 100 scale), Ragweed ([4]; 125 g ai/ha)	Plant response rating (0 to 100 scale), Kochia ([5]; 125 g ai/ha)	Plant response rating (0 to 100 scale), Ryegrass, It. ([6]; 125 g ai/ha)	Pigweed plant response rating ([7]; 125 g ai/ha)	Barnyardgrass plant response rating ([8]; 125 g ai/ha)	Foxtail, Giant plant response rating ([22]; 125 g ai/ha)	Galium plant response rating ([10]; 125 g ai/ha)	Ragweed plant response rating ([11]; 125 g ai/ha)	Kochia plant response rating ([12]; 125 g ai/ha)	Corn plant response rating ([13]; 125 g ai/ha)	Wheat plant response rating ([14]; 125 g ai/ha)	Blackgrass plant response rating ([15]; 125 g ai/ha)	Ryegrass, It. plant response rating ([16]; 125 g ai/ha)	also measured
Cc1nn(C)c(=O)c(-c2ccc(Cl)c3ccsc23)c1OC(=O)c1ccccc1 [Compound 35]	–	–	–	–	–	–	–	–	–	–	–	–	–	–	–	–	–	–	–	–	Plant response rating (0 to 100 scale), Pigweed ([1]; 1000 g ai/ha): 0; Plant response rating (0 to 100 scale), Barnyardgrass ([2]; 1000 g ai/ha): 20; Plant response rating (0 to 100 scale), Foxtail, Green [3]: 0; Plant response rating (0 to 100 scale), Ragweed ([4]; 1000 g ai/ha): 10; Plant response rating (0 to 100 scale), Kochia ([5]; 1000 g ai/ha): 0; Plant response rating (0 to 100 scale), Ryegrass, It. ([6]; 1000 g ai/ha): 80; Pigweed plant response rating ([7]; 1000 g ai/ha): 0; Barnyardgrass plant response rating ([8]; 1000 g ai/ha): 20; Foxtail, Green plant response rating [9]: 0; Galium plant response rating ([10]; 1000 g ai/ha): 100; Ragweed plant response rating ([11]; 1000 g ai/ha): 0; Kochia plant response rating ([12]; 1000 g ai/ha): 0; Corn plant response rating ([13]; 1000 g ai/ha): 0; Wheat plant response rating ([14]; 1000 g ai/ha): 0; Blackgrass plant response rating ([15]; 1000 g ai/ha): 30; Ryegrass, It. plant response rating ([16]; 1000 g ai/ha): 70
CC(=O)Oc1c(C)nn(C)c(=O)c1-c1cncc2ccccc12 [Compound 8]	0	0	0	0	20	0	0	0	0	0	70	0	0	10	0	30	0	0	0	0	Plant response rating (0 to 100 scale), Pigweed ([1]; 500 g ai/ha): 70; Plant response rating (0 to 100 scale), Barnyardgrass ([2]; 500 g ai/ha): 0; Plant response rating (0 to 100 scale), Foxtail, Giant ([21]; 500 g ai/ha): 20; Plant response rating (0 to 100 scale), Ragweed ([4]; 500 g ai/ha): 0; Plant response rating (0 to 100 scale), Kochia ([5]; 500 g ai/ha): 0; Plant response rating (0 to 100 scale), Ryegrass, It. ([6]; 500 g ai/ha): 30; Pigweed plant response rating ([7]; 500 g ai/ha): 80; Barnyardgrass plant response rating ([8]; 500 g ai/ha): 20; Foxtail, Giant plant response rating ([22]; 500 g ai/ha): 20; Galium plant response rating ([10]; 500 g ai/ha): 80; Ragweed plant response rating ([11]; 500 g ai/ha): 0; Kochia plant response rating ([12]; 500 g ai/ha): 80; Corn plant response rating ([13]; 500 g ai/ha): 0; Wheat plant response rating ([14]; 500 g ai/ha): 0; Blackgrass plant response rating ([15]; 500 g ai/ha): 0; Ryegrass, It. plant response rating ([16]; 500 g ai/ha): 30
Cc1nn(C)c(=O)c(-c2ccc(Cl)c3sccc23)c1OC(=O)c1ccccc1 [Compound 57]	0	0	0	0	0	0	0	0	0	10	0	0	0	0	0	0	0	0	0	0	Plant response rating (0 to 100 scale), Pigweed ([1]; 31 g ai/ha): 0; Plant response rating (0 to 100 scale), Barnyardgrass ([2]; 31 g ai/ha): 0; Plant response rating (0 to 100 scale), Foxtail, Giant ([21]; 31 g ai/ha): 0; Plant response rating (0 to 100 scale), Ragweed ([4]; 31 g ai/ha): 0; Plant response rating (0 to 100 scale), Kochia ([5]; 31 g ai/ha): 50; Plant response rating (0 to 100 scale), Ryegrass, It. ([6]; 31 g ai/ha): 0; Pigweed plant response rating ([7]; 31 g ai/ha): 0; Barnyardgrass plant response rating ([8]; 31 g ai/ha): 0; Foxtail, Giant plant response rating ([22]; 31 g ai/ha): 0; Galium plant response rating ([10]; 31 g ai/ha): 0; Ragweed plant response rating ([11]; 31 g ai/ha): 0; Kochia plant response rating ([12]; 31 g ai/ha): 0; Corn plant response rating ([13]; 31 g ai/ha): 0; Wheat plant response rating ([14]; 31 g ai/ha): 0; Blackgrass plant response rating ([15]; 31 g ai/ha): 0; Ryegrass, It. plant response rating ([16]; 31 g ai/ha): 0
CCOC(=O)Oc1c(C)nn(C)c(=O)c1-c1c(CC)sc2ncccc12 [Compound 19]	0	0	0	0	0	0	0	0	0	0	10	0	0	0	0	0	0	0	0	0	Plant response rating (0 to 100 scale), Pigweed ([1]; 500 g ai/ha): 20; Plant response rating (0 to 100 scale), Barnyardgrass ([2]; 500 g ai/ha): 0; Plant response rating (0 to 100 scale), Foxtail, Giant ([21]; 500 g ai/ha): 0; Plant response rating (0 to 100 scale), Ragweed ([4]; 500 g ai/ha): 0; Plant response rating (0 to 100 scale), Kochia ([5]; 500 g ai/ha): 0; Plant response rating (0 to 100 scale), Ryegrass, It. ([6]; 500 g ai/ha): 0; Pigweed plant response rating ([7]; 500 g ai/ha): 30; Barnyardgrass plant response rating ([8]; 500 g ai/ha): 0; Foxtail, Giant plant response rating ([22]; 500 g ai/ha): 0; Galium plant response rating ([10]; 500 g ai/ha): 20; Ragweed plant response rating ([11]; 500 g ai/ha): 0; Kochia plant response rating ([12]; 500 g ai/ha): 0; Corn plant response rating ([13]; 500 g ai/ha): 0; Wheat plant response rating ([14]; 500 g ai/ha): 0; Blackgrass plant response rating ([15]; 500 g ai/ha): 0; Ryegrass, It. plant response rating ([16]; 500 g ai/ha): 0
CCC(=O)Oc1c(C)nn(C)c(=O)c1-c1ccc(Cl)c2oc(C)cc12 [Compound 52]	0	0	0	0	70	0	0	0	0	50	60	0	0	90	20	0	0	0	0	40	Plant response rating (0 to 100 scale), Pigweed ([1]; 500 g ai/ha): 100; Plant response rating (0 to 100 scale), Barnyardgrass ([2]; 500 g ai/ha): 0; Plant response rating (0 to 100 scale), Foxtail, Giant ([21]; 500 g ai/ha): 0; Plant response rating (0 to 100 scale), Ragweed ([4]; 500 g ai/ha): 0; Plant response rating (0 to 100 scale), Kochia ([5]; 500 g ai/ha): 0; Plant response rating (0 to 100 scale), Ryegrass, It. ([6]; 500 g ai/ha): 70; Pigweed plant response rating ([7]; 500 g ai/ha): 60; Barnyardgrass plant response rating ([8]; 500 g ai/ha): 10; Foxtail, Giant plant response rating ([22]; 500 g ai/ha): 0; Galium plant response rating ([10]; 500 g ai/ha): 90; Ragweed plant response rating ([11]; 500 g ai/ha): 60; Kochia plant response rating ([12]; 500 g ai/ha): 20; Corn plant response rating ([13]; 500 g ai/ha): 0; Wheat plant response rating ([14]; 500 g ai/ha): 0; Blackgrass plant response rating ([15]; 500 g ai/ha): 10; Ryegrass, It. plant response rating ([16]; 500 g ai/ha): 60
